Experimental data published in ChEMBL document CHEMBL1127886, “Inhibition of the RTEM-1 -lactamase by boronic acids” (Bioorg Med Chem Lett, 1994).

biological target: Beta-lactamase TEM (Escherichia coli, UniProt P62593); assay: Inhibitory constant was determined against class A RTEM-1 Beta-lactamase from Escherichia coli
Sequence (P62593 whole entry): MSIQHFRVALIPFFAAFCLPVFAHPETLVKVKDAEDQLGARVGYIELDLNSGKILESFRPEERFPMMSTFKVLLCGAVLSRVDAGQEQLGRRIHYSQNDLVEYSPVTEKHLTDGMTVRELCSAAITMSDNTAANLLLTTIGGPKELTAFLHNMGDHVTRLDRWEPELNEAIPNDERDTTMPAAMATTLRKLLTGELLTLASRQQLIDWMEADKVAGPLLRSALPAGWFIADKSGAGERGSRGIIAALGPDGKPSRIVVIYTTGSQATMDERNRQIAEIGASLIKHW

SMILES | Ki [µM]
OB(O)c1cccc(-c2ccccc2)c1 | 13.9
OB(O)CCc1cccc2ccccc12 | 101
OB(O)CCc1ccc(C(F)(F)F)cc1 | 43
Cc1ccc(CCB(O)O)cc1 | 58
OB(O)c1ccc(Cl)cc1Cl | 94
OB(O)c1ccc(Cl)c(Cl)c1 | 143
Nc1cccc(B(O)O)c1 | 3700
OB(O)c1ccc(Br)cc1 | 28
O=C(O)c1ccc(CCB(O)O)cc1 | 49
COc1ccc(B(O)O)cc1 | 670
OB(O)CCc1ccc(Cl)cc1 | 41
Cc1ccccc1CCB(O)O | 141
OB(O)CCc1ccc2ccccc2c1 | 44
OB(O)CCC1CCCCC1 | 276
OB(O)c1cccc(Br)c1 | 83
OB(O)c1ccc(F)c(Cl)c1 | 152
OB(O)CCc1ccccc1Cl | 106
Cc1cccc(CCB(O)O)c1 | 83
COc1cccc(CCB(O)O)c1 | 50
OB(O)c1ccccc1 [PHENYLBORONIC ACID] | 491
